tested on: MOLM-14 F691L cells, FLT3 ITD and FLT3 F691L; assay: Cell proliferation assay (CellTiter-Glo), MOLM-14 F691L; type: cell-based; settings: Homo sapiens, 72 h, 3d-Growth, GMean
Method in brief: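 Three-day growth at 37 °C, 5% CO2 under compound (1 μM top final, 1:3 dilutions, eight points, 0.2% DMSO), read as ATP luminescence by CellTiter-Glo for IC50. Cells: MOLM-14 with FLT3 ITD plus D835Y or F691L, and IL-3-deprived Ba/F3 transfected with FLT3 ITD/D835Y, 1×10^4 per well.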

| IC50 | Structure (SMILES) |
| --- | --- |
| 0.0001 to 10 µM | C#Cc1cc2cc(-c3cccc(S(=O)(=O)NC4CC4)c3)cnc2[nH]1 [Compound P-0004, N-cyclopropyl-3-(2-ethynyl-1H-pyrrolo[2,3-b]pyridin-5-yl)benzenesulfonamide] |
| 0.0001 to 10 µM | CN(C)CC#Cc1cc2cc(-c3cccc(S(=O)(=O)NC4CC4)c3)cnc2[nH]1 [Compound P-0009, N-cyclopropyl-3-[2-[3-(dimethylamino)prop-1-ynyl]-1H-pyrrolo[2,3-b]pyridin-5-yl]benzenesulfonamide] |
| 0.0001 to 10 µM | O=S(=O)(NC1CC1)c1cccc(-c2cnc3[nH]c(C#CC4CCCCC4)cc3c2)c1 [Compound P-0010, 3-[2-(2-cyclohexylethynyl)-1H-pyrrolo[2,3-b]pyridin-5-yl]-N-cyclopropyl-benzenesulfonamide] |
| 0.0001 to 10 µM | CNC1CCN(C(=O)c2cccc(-c3cnc4[nH]c(-c5cn(C)nc5C)cc4c3)n2)C1 (stereo not drawn) [Compound P-0049, [6-[2-(1,3-dimethylpyrazol-4-yl)-1H-pyrrolo[2,3-b]pyridin-5-yl]-2-pyridyl]-[3-(methylamino)pyrrolidin-1-yl]methanone] |
| 0.0001 to 10 µM | c1ccc(-c2cc3cc(-c4cccc(OC5CCNCC5)n4)cnc3[nH]2)cc1 [Compound P-0050, 2-phenyl-5-[6-(4-piperidyloxy)-2-pyridyl]-1H-pyrrolo[2,3-b]pyridine] |

target: T1, FLT3-D835Y (Homo sapiens, UniProt P36888, D835Y); assay: AlphaScreen kinase assay with recombinant enzyme, FLT3-D835Y; type: biochemical; settings: 8pt, GMean
T1 construct: purchased Invitrogen PV3967
T1 sequence (P36888 27-993 D835Y): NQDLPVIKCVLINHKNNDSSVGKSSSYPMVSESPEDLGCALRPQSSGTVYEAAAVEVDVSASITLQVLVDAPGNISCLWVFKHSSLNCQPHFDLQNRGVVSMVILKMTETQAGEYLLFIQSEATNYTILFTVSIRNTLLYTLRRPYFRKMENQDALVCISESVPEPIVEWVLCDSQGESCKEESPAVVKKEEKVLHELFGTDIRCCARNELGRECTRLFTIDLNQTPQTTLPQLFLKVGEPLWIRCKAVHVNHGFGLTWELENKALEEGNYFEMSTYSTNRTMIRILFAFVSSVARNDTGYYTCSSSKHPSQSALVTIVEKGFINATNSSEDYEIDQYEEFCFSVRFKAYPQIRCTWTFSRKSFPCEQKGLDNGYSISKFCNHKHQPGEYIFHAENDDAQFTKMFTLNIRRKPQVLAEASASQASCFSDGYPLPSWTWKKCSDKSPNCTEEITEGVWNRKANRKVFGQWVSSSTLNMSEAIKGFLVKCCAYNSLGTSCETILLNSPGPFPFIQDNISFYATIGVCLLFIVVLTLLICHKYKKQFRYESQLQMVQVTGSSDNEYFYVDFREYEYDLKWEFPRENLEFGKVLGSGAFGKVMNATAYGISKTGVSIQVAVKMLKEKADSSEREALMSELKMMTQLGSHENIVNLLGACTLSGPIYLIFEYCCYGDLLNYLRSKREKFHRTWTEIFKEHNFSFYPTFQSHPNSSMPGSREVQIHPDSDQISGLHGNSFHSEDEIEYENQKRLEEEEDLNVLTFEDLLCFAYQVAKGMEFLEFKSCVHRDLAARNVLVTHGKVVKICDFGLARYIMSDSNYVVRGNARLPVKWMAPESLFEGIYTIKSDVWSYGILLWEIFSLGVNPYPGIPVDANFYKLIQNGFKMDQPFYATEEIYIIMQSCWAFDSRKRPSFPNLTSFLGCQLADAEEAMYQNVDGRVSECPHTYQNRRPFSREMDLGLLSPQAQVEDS
Method in brief: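 Tyrosine phosphorylation of biotin-poly(Glu4-Tyr) substrate by recombinant enzyme is detected with PY20 acceptor and streptavidin donor beads after room-temperature incubations of 20 and 60 min. IC50 values were derived at a final 10 μM (FLT3-D835Y, FLT3-ITD) or 100 μM (c-KIT).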

| IC50 | Structure (SMILES) |
| --- | --- |
| 0.0001 to 10 µM | NC1(C(F)(F)F)CCN(C(=O)c2cccc(-c3cnc4[nH]c(-c5ccccc5)cc4c3)n2)C1 (stereo not drawn) [Compound P-0077, [3-amino-3-(trifluoromethyl)pyrrolidin-1-yl]-[6-(2-phenyl-1H-pyrrolo[2,3-b]pyridin-5-yl)-2-pyridyl]methanone] |
| 0.0001 to 10 µM | CC1(N)CCN(C(=O)c2cccc(-c3cnc4[nH]c(-c5ccccc5)cc4c3)n2)C1 (stereo not drawn) [Compound P-0078, (3-amino-3-methyl-pyrrolidin-1-yl)-[6-(2-phenyl-1H-pyrrolo[2,3-b]pyridin-5-yl)-2-pyridyl]methanone] |
| 0.0001 to 10 µM | CNCC1CCN(C(=O)c2cccc(-c3cnc4[nH]c(-c5ccccc5)cc4c3)n2)C1 (stereo not drawn) [Compound P-0079, [3-(methylaminomethyl)pyrrolidin-1-yl]-[6-(2-phenyl-1H-pyrrolo[2,3-b]pyridin-5-yl)-2-pyridyl]methanone] |
| 0.0001 to 10 µM | O=C(c1cccc(-c2cnc3[nH]c(-c4ccccc4)cc3c2)n1)N1CC(F)(F)C1 [Compound P-0090, (3,3-difluoroazetidin-1-yl)-[6-(2-phenyl-1H-pyrrolo[2,3-b]pyridin-5-yl)-2-pyridyl]methanone] |
| 0.0001 to 10 µM | COC1CN(C(=O)c2cccc(-c3cnc4[nH]c(-c5ccccc5)cc4c3)n2)C1 [Compound P-0091, (3-methoxyazetidin-1-yl)-[6-(2-phenyl-1H-pyrrolo[2,3-b]pyridin-5-yl)-2-pyridyl]methanone] |
| 0.0001 to 10 µM | CC1(C#N)CCN(C(=O)c2cccc(-c3cnc4[nH]c(-c5ccccc5)cc4c3)n2)CC1 [Compound P-0094, 4-methyl-1-[6-(2-phenyl-1H-pyrrolo[2,3-b]pyridin-5-yl)pyridine-2-carbonyl]piperidine-4-carbonitrile] |
| 0.0001 to 10 µM | COC1CCN(C(=O)c2cccc(-c3cnc4[nH]c(-c5ccccc5)cc4c3)n2)CC1 [Compound P-0098, (4-methoxy-1-piperidyl)-[6-(2-phenyl-1H-pyrrolo[2,3-b]pyridin-5-yl)-2-pyridyl]methanone] |
| 0.0001 to 10 µM | CS(=O)(=O)NC1CCN(C(=O)c2cccc(-c3cnc4[nH]c(-c5ccccc5)cc4c3)n2)C1 (stereo not drawn) [Compound P-0101, N-[1-[6-(2-phenyl-1H-pyrrolo[2,3-b]pyridin-5-yl)pyridine-2-carbonyl]pyrrolidin-3-yl]methanesulfonamide] |
| 0.0001 to 10 µM | O=C(c1cccc(-c2cnc3[nH]c(-c4ccccc4)cc3c2)n1)N1CCC(N2CCOCC2)C1 (stereo not drawn) [Compound P-0102, (3-morpholinopyrrolidin-1-yl)-[6-(2-phenyl-1H-pyrrolo[2,3-b]pyridin-5-yl)-2-pyridyl]methanone] |
| 0.0001 to 10 µM | O=C(c1cccc(-c2cnc3[nH]c(-c4ccccc4)cc3c2)n1)N1CCC(C(F)(F)F)C1 (stereo not drawn) [Compound P-0103, [6-(2-phenyl-1H-pyrrolo[2,3-b]pyridin-5-yl)-2-pyridyl]-[3-(trifluoromethyl)pyrrolidin-1-yl]methanone] |
| 0.0001 to 10 µM | CN(C)C1CCN(C(=O)c2cccc(-c3cnc4[nH]c(-c5ccccc5)cc4c3)n2)C1 (stereo not drawn) [Compound P-0104, [3-(dimethylamino)pyrrolidin-1-yl]-[6-(2-phenyl-1H-pyrrolo[2,3-b]pyridin-5-yl)-2-pyridyl]methanone] |
| 0.0001 to 10 µM | CC(C)(C#N)NC(=O)c1cccc(-c2cnc3[nH]c(-c4cnc(N5CCOCC5)nc4)cc3c2)n1 [Compound P-0198, N-(1-cyano-1-methyl-ethyl)-6-[2-(2-morpholinopyrimidin-5-yl)-1H-pyrrolo[2,3-b]pyridin-5-yl]pyridine-2-carboxamide] |
| 0.0001 to 10 µM | CC(C)(C#N)NC(=O)c1cccc(-c2cnc3[nH]c(-c4cccc(N5CCCS5(=O)=O)c4)cc3c2)n1 [Compound P-0199, N-(1-cyano-1-methyl-ethyl)-6-[2-[3-(1,1-dioxo-1,2-thiazolidin-2-yl)phenyl]-1H-pyrrolo[2,3-b]pyridin-5-yl]pyridine-2-carboxamide] |
| 0.0001 to 10 µM | CC(C)(NC(=O)c1cccc(-c2cnc3[nH]c(-c4cnn(C5CCNCC5)c4)cc3c2)n1)C(N)=O [Compound P-0200, N-(2-amino-1,1-dimethyl-2-oxo-ethyl)-6-[2-[1-(4-piperidyl)pyrazol-4-yl]-1H-pyrrolo[2,3-b]pyridin-5-yl]pyridine-2-carboxamide] |
| 0.0001 to 10 µM | CC(C)(C#N)NC(=O)c1cccc(-c2cnc3[nH]c(-c4cnc(N5CCCC5)nc4)cc3c2)n1 [Compound P-0202, N-(1-cyano-1-methyl-ethyl)-6-[2-(2-pyrrolidin-1-ylpyrimidin-5-yl)-1H-pyrrolo[2,3-b]pyridin-5-yl]pyridine-2-carboxamide] |

Second part, the compound before the results:

| Structure (SMILES) | IC50 |
| --- | --- |
| C#Cc1cc2cc(-c3cccc(S(=O)(=O)NC4CC4)c3)cnc2[nH]1 [Compound P-0004, N-cyclopropyl-3-(2-ethynyl-1H-pyrrolo[2,3-b]pyridin-5-yl)benzenesulfonamide] | 0.0001 to 10 µM |
| CN(C)CC#Cc1cc2cc(-c3cccc(S(=O)(=O)NC4CC4)c3)cnc2[nH]1 [Compound P-0009, N-cyclopropyl-3-[2-[3-(dimethylamino)prop-1-ynyl]-1H-pyrrolo[2,3-b]pyridin-5-yl]benzenesulfonamide] | 0.0001 to 10 µM |
| O=S(=O)(NC1CC1)c1cccc(-c2cnc3[nH]c(C#CC4CCCCC4)cc3c2)c1 [Compound P-0010, 3-[2-(2-cyclohexylethynyl)-1H-pyrrolo[2,3-b]pyridin-5-yl]-N-cyclopropyl-benzenesulfonamide] | 50 to 100 µM |
| CNC1CCN(C(=O)c2cccc(-c3cnc4[nH]c(-c5cn(C)nc5C)cc4c3)n2)C1 (stereo not drawn) [Compound P-0049, [6-[2-(1,3-dimethylpyrazol-4-yl)-1H-pyrrolo[2,3-b]pyridin-5-yl]-2-pyridyl]-[3-(methylamino)pyrrolidin-1-yl]methanone] | 0.0001 to 10 µM |
| c1ccc(-c2cc3cc(-c4cccc(OC5CCNCC5)n4)cnc3[nH]2)cc1 [Compound P-0050, 2-phenyl-5-[6-(4-piperidyloxy)-2-pyridyl]-1H-pyrrolo[2,3-b]pyridine] | 0.0001 to 10 µM |
| CNC1CCN(C(=O)c2cccc(-c3cnc4[nH]c(C5=CCC(C)(C)CC5)cc4c3)n2)C1 (stereo not drawn) [Compound P-0070, [6-[2-(4,4-dimethylcyclohexen-1-yl)-1H-pyrrolo[2,3-b]pyridin-5-yl]-2-pyridyl]-[3-(methylamino)pyrrolidin-1-yl]methanone] | 0.0001 to 10 µM |
| O=S(=O)(NC1CNC1)c1cccc(-c2cnc3[nH]c(-c4ccccc4)cc3c2)n1 [Compound P-0071, N-(azetidin-3-yl)-6-(2-phenyl-1H-pyrrolo[2,3-b]pyridin-5-yl)pyridine-2-sulfonamide] | 0.0001 to 10 µM |
| O=S(=O)(NC1CCNC1)c1cccc(-c2cnc3[nH]c(-c4ccccc4)cc3c2)n1 (stereo not drawn) [Compound P-0072, 6-(2-phenyl-1H-pyrrolo[2,3-b]pyridin-5-yl)-N-pyrrolidin-3-yl-pyridine-2-sulfonamide] | 0.0001 to 10 µM |
| NC1CCN(S(=O)(=O)c2cccc(-c3cnc4[nH]c(-c5ccccc5)cc4c3)n2)CC1 [Compound P-0073, 1-[[6-(2-phenyl-1H-pyrrolo[2,3-b]pyridin-5-yl)-2-pyridyl]sulfonyl]piperidin-4-amine] | 0.0001 to 10 µM |
| CN1CC(NC(=O)c2cccc(-c3cnc4[nH]c(-c5ccccc5)cc4c3)n2)C1 [Compound P-0075, N-(1-methylazetidin-3-yl)-6-(2-phenyl-1H-pyrrolo[2,3-b]pyridin-5-yl)pyridine-2-carboxamide] | 0.0001 to 10 µM |

Source: patent US9938273B2 (Plexxikon Inc., priority 2015, dated 2018)
